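The concentration for 50% growth inhibition is given as GI50. TGI denotes the concentration required for complete inhibition of growth.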
Columns and labels:
Assay in all cases: NCI tumour cell line growth inhibition, 384-well format
786-0 renal = test system: 786-0 renal
ACHN renal = test system: ACHN renal
NCI-H23 lung = test system: NCI-H23 lung
HOP-92 NSCLC = test system: HOP-92 NSCLC
OVCAR-5 ovarian = test system: OVCAR-5 ovarian
DU-145 prostate = test system: DU-145 prostate
SK-MEL-5 melanoma = test system: SK-MEL-5 melanoma
TK-10 renal = test system: TK-10 renal
MCF7 breast = test system: MCF7 breast
NCI-H522 lung = test system: NCI-H522 lung
U251 glioblastoma = test system: U251 glioblastoma
HCT-15 colon = test system: HCT-15 colon
SR leukemia = test system: SR leukemia

C=CCN(/C=C1\C(=O)O[C@H](COC)[C@@]2(C)C1=C(O)C(=O)C1=C2[C@H](OC(C)=O)C[C@]2(C)C(=O)CC[C@@H]12)CC=C
GI50 (786-0 renal): 4.45 µM
TGI (786-0 renal): 28.5 µM
GI50 (ACHN renal): 4.71 µM
TGI (ACHN renal): > 100 µM
GI50 (NCI-H23 lung): 4.35 µM
TGI (NCI-H23 lung): 33.8 µM
GI50 (HOP-92 NSCLC): 2.47 µM
TGI (HOP-92 NSCLC): 37.6 µM
GI50 (OVCAR-5 ovarian): 3.62 µM
TGI (OVCAR-5 ovarian): 42.9 µM
GI50 (DU-145 prostate): 4.41 µM
TGI (DU-145 prostate): 59.7 µM
GI50 (SK-MEL-5 melanoma): 2.96 µM
TGI (SK-MEL-5 melanoma): 14.7 µM
GI50 (TK-10 renal): 1.19 µM
TGI (TK-10 renal): 15.2 µM
GI50 (MCF7 breast): 0.441 µM
TGI (MCF7 breast): 19.4 µM
GI50 (NCI-H522 lung): 2.08 µM
TGI (NCI-H522 lung): 14.4 µM
GI50 (U251 glioblastoma): 13 µM
TGI (U251 glioblastoma): 82.7 µM
GI50 (HCT-15 colon): 2.98 µM
TGI (HCT-15 colon): 97.2 µM
GI50 (SR leukemia): 1.22 µM
TGI (SR leukemia): 2.51 µM

From PubChem BioAssay (NCI)
